Patent US10414763B2 (CANCER RESEARCH TECHNOLOGY LIMITED, priority 2014, dated 2019)

These molecules were tested against T1, full-length human PKCι (Homo sapiens, UniProt P41743) (assay: PKCι IC50 IMAP fluorescence polarisation assay, full-length enzyme, 150 μM ATP). Conditions: read-out: IC50 in IMAP assay against full length PKCi at 150 μM ATP.
T1 construct: Recombinant, full-length human PKCι expressed in Sf21 insect cells is also commercially available; purchased EMD Millipore; host or cells: Sf21 insect cells (baculovirus)
T1 sequence (P41743 1-596): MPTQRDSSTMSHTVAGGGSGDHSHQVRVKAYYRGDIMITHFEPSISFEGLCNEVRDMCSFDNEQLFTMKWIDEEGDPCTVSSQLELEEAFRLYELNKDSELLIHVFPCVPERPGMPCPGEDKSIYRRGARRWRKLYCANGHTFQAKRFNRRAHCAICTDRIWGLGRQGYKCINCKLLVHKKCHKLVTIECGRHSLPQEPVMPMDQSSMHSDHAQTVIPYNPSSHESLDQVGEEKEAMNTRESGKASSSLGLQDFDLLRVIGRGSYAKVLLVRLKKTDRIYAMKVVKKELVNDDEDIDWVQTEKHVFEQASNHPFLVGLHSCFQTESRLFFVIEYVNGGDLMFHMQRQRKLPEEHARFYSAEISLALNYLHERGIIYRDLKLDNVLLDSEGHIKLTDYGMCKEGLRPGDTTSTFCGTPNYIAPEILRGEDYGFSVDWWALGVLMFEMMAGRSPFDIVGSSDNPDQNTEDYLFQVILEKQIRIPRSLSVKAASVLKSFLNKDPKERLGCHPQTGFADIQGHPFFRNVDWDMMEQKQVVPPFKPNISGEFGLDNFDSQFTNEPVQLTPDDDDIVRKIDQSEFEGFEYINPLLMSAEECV
Assay type: biochemical
Summary of the method: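 IMAP fluorescence polarisation kinase assay: 15 pM baculovirus-expressed human PKCiota with 100 nM FAM-pseudosubstrate peptide and 150 μM ATP, 1 h at 25 °C. IMAP detection reagent then 2 h at 25 °C before FP measurement. Inhibition referenced to no-compound and no-enzyme controls for IC50 fitting.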

Row | Compound | IC50 [nM]
1 | CC1(C)CNCC[C@@H]1Nc1nc(-c2ccnc(Nc3ncccc3F)c2)nc2cncc(C3CCC3)c12 [Example 210, {5-Cyclobutyl-2-[2-(3-fluoro-pyridin-2-ylamino)-pyridin-4-yl]-pyrido[3,4-d]pyrimidin-4-yl}-((S)-3,3-dimethyl-piperidin-4-yl)-amine] | < 100
2 | CC1(C)CNCC[C@@H]1Nc1nc(-c2ccnc(Nc3ncc(F)cc3F)c2)nc2cncc(C3CCC3)c12 [Example 211, {5-Cyclobutyl-2-[2-(3,5-difluoro-pyridin-2-ylamino)-pyridin-4-yl]-pyrido[3,4-d]pyrimidin-4-yl}-((S)-3,3-dimethyl-piperidin-4-yl)-amine] | < 100
3 | Cc1cc2c(-c3nc(N(C)[C@H]4CCNCC4(C)C)c4c(C5CC5)cncc4n3)ccnc2[nH]1 [Example 212, [5-Cyclopropyl-2-(2-methyl-1H-pyrrolo[2,3-b]pyridin-4-yl)-pyrido[3,4-d]pyrimidin-4-yl]-((S)-3,3-dimethyl-piperidin-4-yl)-methyl-amine] | < 100
4 | CN(c1nc(-c2ccnc3[nH]c(C(C)(C)C)cc23)nc2cncc(C3CCC3)c12)C1CCNCC1 [Example 213, [2-(2-tert-Butyl-1H-pyrrolo[2,3-b]pyridin-4-yl)-5-cyclobutyl-pyrido[3,4-d]pyrimidin-4-yl]-methyl-piperidin-4-yl-amine] | < 100
5 | Fc1ccc(Cl)c(-c2cc3c(-c4nc(N5CCNCC5)c5c(C6CC6)cncc5n4)ccnc3[nH]2)c1 [Example 222, 2-[2-(2-Chloro-5-fluoro-phenyl)-1H-pyrrolo[2,3-b]pyridin-4-yl]-5-cyclopropyl-4-piperazin-1-yl-pyrido[3,4-d]pyrimidine] | < 100
6 | CC1(C)CNCC[C@@H]1Nc1nc(-c2ccnc3[nH]c(C(F)(F)F)cc23)nc2cncc(C3CC3)c12 [Example 227, [5-Cyclopropyl-2-(2-trifluoromethyl-1H-pyrrolo[2,3-b]pyridin-4-yl)-pyrido[3,4-d]pyrimidin-4-yl]-((S)-3,3-dimethyl-piperidin-4-yl)-amine] | < 100
7 | CC1(C)CNCC[C@@H]1Nc1nc(-c2ccnc3[nH]c(C(F)(F)F)cc23)nc2cncc(C3CCC3)c12 [Example 228, [5-Cyclobutyl-2-(2-trifluoromethyl-1H-pyrrolo[2,3-b]pyridin-4-yl)-pyrido[3,4-d]pyrimidin-4-yl]-((S)-3,3-dimethyl-piperidin-4-yl)-amine] | < 100
8 | CC1(C)CNCC[C@@H]1Nc1nc(-c2ccnc3[nH]c(-c4cc(F)ccc4Cl)cc23)nc2cncc(C3CC3)c12 [Example 229, {2-[2-(2-Chloro-5-fluoro-phenyl)-1H-pyrrolo[2,3-b]pyridin-4-yl]-5-cyclopropyl-pyrido[3,4-d]pyrimidin-4-yl}-((S)-3,3-dimethyl-piperidin-4-yl)-amine] | < 100
9 | c1ccc(-n2cnc(Nc3cc(-c4nc(N5CCC6CNCCC65)c5c(C6CC6)cncc5n4)ccn3)n2)cc1 (stereo not drawn) [Example 235, [4-[5-Cyclopropyl-4-(octahydro-pyrrolo[3,2-c]pyridin-1-yl)-pyrido[3,4-d]pyrimidin-2-yl]-pyridin-2-yl}-(1-phenyl-1H-1,2,4-triazol-3-yl)-amine] | < 100
10 | O[C@]12CCN(c3nc(-c4ccnc(Nc5ncn(-c6ccccc6)n5)c4)nc4cncc(C5CC5)c34)[C@H]1CCNC2 [Example 236] | < 100
11 | c1ccc(Cn2cnc(Nc3cc(-c4nc(N5CCC6CNCCC65)c5c(C6CC6)cncc5n4)ccn3)n2)cc1 (stereo not drawn) [Example 239, (1-Benzyl-1H-1,2,4-triazol-3-yl)-{4-[5-cyclopropyl-4-(octahydro-pyrrolo[3,2-c]pyridin-1-yl)-pyrido[3,4-d]pyrimidin-2-yl]-pyridin-2-yl}-amine] | < 100
12 | CC1(C)CNCC[C@@H]1Nc1nc(-c2ccnc(Nc3nc4ccccn4n3)c2)nc2cncc(C3CC3)c12 [Example 241, [5-Cyclopropyl-2-[2-([1,2,4]triazolo[1,5-a]pyridin-2-ylamino)-pyridin-4-yl]-pyrido[3,4-d]pyrimidin-4-yl}-((S)-3,3-dimethyl-piperidin-4-yl)-amine] | < 100
13 | CC1(C)CNCC[C@@H]1Nc1nc(-c2ccnc(Nc3ncn(Cc4ccccc4)n3)c2)nc2cncc(C3CC3)c12 [Example 242, {2-[2-(1-Benzyl-1H-1,2,4-triazol-3-ylamino)-pyridin-4-yl]-5-cyclopropyl-pyrido[3,4-d]pyrimidin-4-yl}-((S)-3,3-dimethyl-piperidin-4-yl)-amine] | < 100
14 | CC1(C)CNCC[C@@H]1Nc1nc(-c2ccnc(Nc3ncn(-c4ccccc4)n3)c2)nc2cncc(C3CC3)c12 [Example 243, {5-Cyclopropyl-2-[2-(1-phenyl-1H-1,2,4-triazol-3-ylamino)-pyridin-4-yl]-pyrido[3,4-d]pyrimidin-4-yl}-((S)-3,3-dimethyl-piperidin-4-yl)-amine] | < 100
15 | c1ccn2nc(Nc3cc(-c4nc(N5CCC6NCCCC65)c5c(C6CC6)cncc5n4)ccn3)nc2c1 (stereo not drawn) [Example 244, {4-[5-Cyclopropyl-4-(octahydro-pyrrolo[3,2-b]pyridin-1-yl)-pyrido[3,4-d]pyrimidin-2-yl]-pyridin-2-yl}-[1,2,4]triazolo[1,5-a]pyridin-2-yl-amine] | < 100
16 | c1ccc(-n2cnc(Nc3cc(-c4nc(N5CCC6NCCCC65)c5c(C6CC6)cncc5n4)ccn3)n2)cc1 (stereo not drawn) [Example 245, {4-[5-Cyclopropyl-4-(octahydro-pyrrolo[3,2-b]pyridin-1-yl)-pyrido[3,4-d]pyrimidin-2-yl]-pyridin-2-yl}-(1-phenyl-1H-1,2,4-triazol-3-yl)-amine] | < 100
17 | NC[C@@H]1CCN(c2nc(-c3ccnc4[nH]c5ccccc5c34)nc3cncc(C4CCC4)c23)C1 [Example 248, C-{(S)-1-[5-Cyclobutyl-2-(9H-pyrido[2,3-b]indol-4-yl)-pyrido[3,4-d]pyrimidin-4-yl]-pyrrolidin-3-yl}-methylamine] | < 100

Results, then the molecule that gave them:

Row | IC50 [nM] | Compound
18 | < 100 | NC1CCN(c2nc(-c3ccnc4[nH]c5ccccc5c34)nc3cncc(C4CCC4)c23)C1 (stereo not drawn) [Example 214, 1-[5-Cyclobutyl-2-(9H-pyrido[2,3-b]indol-4-yl)-pyrido[3,4-d]pyrimidin-4-yl]-pyrrolidin-3-ylamine]
19 | 100 to 1000 | FC(F)(F)c1cncc2nc(-c3ccnc4[nH]c5ccccc5c34)nc(N3CCNCC3)c12 [Example 215, 4-(4-Piperazin-1-yl-5-trifluoromethyl-pyrido[3,4-d]pyrimidin-2-yl)-9H-pyrido[2,3-b]indole]
20 | 100 to 1000 | FC(F)(F)c1cncc2nc(-c3ccnc4[nH]c5ccccc5c34)nc(N3CC[C@@H]4CNC[C@@H]43)c12 [Example 216, 4-((3R,6R)-4-Hexahydro-pyrrolo[3,4-b]pyrrol-1-yl-5-trifluoromethyl-pyrido[3,4-d]pyrimidin-2-yl)-9H-pyrido[2,3-b]indole]
21 | < 100 | CC1(C)CNCC[C@@H]1Nc1nc(-c2ccnc3[nH]c4ccccc4c23)nc2cncc(C(F)(F)F)c12 [Example 217, ((S)-3,3-Dimethyl-piperidin-4-yl)-[2-(9H-pyrido[2,3-b]indol-4-yl)-5-trifluoromethyl-pyrido[3,4-d]pyrimidin-4-yl]-amine]
22 | 100 to 1000 | N[C@H]1C[C@@H](Nc2nc(-c3ccnc4[nH]c5ccccc5c34)nc3cncc(C(F)(F)F)c23)C1 [Example 218, cis-N-[2-(9H-Pyrido[2,3-b]indol-4-yl)-5-trifluoromethyl-pyrido[3,4-d]pyrimidin-4-yl]-cyclobutane-1,3-diamine]
23 | < 100 | OC1CNCCC(Nc2nc(-c3ccnc4[nH]c5ccccc5c34)nc3cncc(C(F)(F)F)c23)C1 (stereo not drawn) [Example 219, 5-[2-(9H-Pyrido[2,3-b]indol-4-yl)-5-trifluoromethyl-pyrido[3,4-d]pyrimidin-4-ylamino]-azepan-3-ol]
24 | < 100 | CN(c1nc(-c2ccnc3[nH]c4ccccc4c23)nc2cncc(C(F)(F)F)c12)C1CC(N)C(O)C1 (stereo not drawn) [Example 220, 2-Amino-4-{methyl-[2-(9H-pyrido[2,3-b]indol-4-yl)-5-trifluoromethyl-pyrido[3,4-d]pyrimidin-4-yl]-amino}-cyclopentanol]
25 | 100 to 1000 | NC1CCN(c2nc(-c3ccnc4[nH]c5ccccc5c34)nc3cncc(C(F)(F)F)c23)C1 (stereo not drawn) [Example 221, 1-[2-(9H-Pyrido[2,3-b]indol-4-yl)-5-trifluoromethyl-pyrido[3,4-d]pyrimidin-4-yl]-pyrrolidin-3-ylamine]
26 | < 100 | FC1CNCCC(Nc2nc(-c3ccnc4[nH]c5ccccc5c34)nc3cncc(C4CCC4)c23)C1 (stereo not drawn) [Example 232, [5-Cyclobutyl-2-(9H-pyrido[2,3-b]indol-4-yl)-pyrido[3,4-d]pyrimidin-4-yl]-(6-fluoro-azepan-4-yl)-amine]
27 | < 100 | NC[C@H]1CCN(c2nc(-c3ccnc4[nH]c5ccccc5c34)nc3cncc(C4CCC4)c23)C1 [Example 249, C-{(R)-1-[5-Cyclobutyl-2-(9H-pyrido[2,3-b]indol-4-yl)-pyrido[3,4-d]pyrimidin-4-yl]-pyrrolidin-3-yl}-methylamine]
